Measurements as given in ChEMBL document CHEMBL1137334 (J Med Chem, 2006).
≈ marks a conversion by molar mass, not a printed value.

What was measured:
Calu-6 [1] = assay: Inhibition of paxillin phosphorylation in Calu-6 xenograft tumor model at 20 mg/kg/day, po; type: functional; conditions: Homo sapiens
[2] = Permeability from apical to basolateral side of NIH 3T3 cell; type: ADME, cell-based, NIH3T3; conditions: mouse, not told; read-out: permeability
[3] = target: Glycogen synthase kinase-3 beta (Homo sapiens, UniProt P49841); assay: Inhibition of GSK3-beta
[4] = target: Vascular endothelial growth factor receptor 1 (Homo sapiens, UniProt P17948); assay: Inhibition of recombinant FLT1 by ELISA
K562 = assay: Antiproliferative activity against huamn K562 cell line; type: functional, cell-based; conditions: Homo sapiens
HUVEC [5] = assay: Inhibition of VEGF-stimulated HUVEC cell growth; type: functional, cell-based; conditions: Homo sapiens
[6] = target: Cyclin-dependent kinase 2 (Homo sapiens, UniProt P24941); assay: Inhibition of CDK2 by SPA
[7] = (§1) Half life in rat at 25 mg/kg, po and 2 mg/kg, iv; type: ADME, organism-based; conditions: in vivo
[8] = target: c-Jun N-terminal kinase, JNK (Homo sapiens, UniProt P45983+P53779+P45984); assay: Inhibition of JNK; type: protein assay
[9] = Aqueous solubility at pH 7.0; type: physicochemical
[10] = as §1; type: ADME, organism-based; conditions: in vivo; remark: listed apart in the source
[11] = Volume of distribution in male dog; type: ADME, organism-based, Canis lupus familiaris; conditions: male, in vivo, read-out: Vdss
[12] = Volume of distribution in male rat at 25 mg/kg, po and 2 mg/kg, iv; type: ADME, organism-based; conditions: in vivo, read-out: Vdss
HUVEC [13] = assay: Inhibition of FGF-stimulated HUVEC cell growth; type: functional, cell-based; conditions: Homo sapiens
[14] = Bioavailability in male dog; type: ADME, organism-based, Canis lupus familiaris; conditions: in vivo
[15] = Half life in male dog; type: ADME, organism-based, Canis lupus familiaris; conditions: male, in vivo
[16] = AUC (0-24h) in mouse at 20 mg/kg, po; type: ADME, organism-based; design: time < 24 hr, dose 20 mg/kg, route oral; conditions: plasma
[17] = Clearance in female rat at 25 mg/kg, po and 2 mg/kg, iv; type: ADME, organism-based; conditions: in vivo
[18] = target: Dual specificity mitogen-activated protein kinase kinase; MEK1/2 (Homo sapiens, UniProt P36507+Q02750); assay: Inhibition of MAPKK; type: protein assay
[19] = Bioavailability in female rat at 25 mg/kg, po and 2 mg/kg, iv; type: ADME, organism-based; conditions: in vivo
[20] = Bioavailability in male rat at 25 mg/kg, po and 2 mg/kg, iv; type: ADME, organism-based; conditions: in vivo
[21] = Inhibition of Chk; design: species or system Homo sapiens
[22] = Volume of distribution in female rat at 25 mg/kg, po and 2 mg/kg, iv; type: ADME, organism-based; conditions: in vivo, read-out: Vdss
NIH3T3 = assay: Antiproliferative activity against NIH 3T3 cells xenografted in athymic rat measured as inhibition of tumor volume at 6 mg/kg/day after 18 days; type: functional; conditions: NIH3T3, 432 h
[23] = target: Vascular endothelial growth factor receptor 3 (Homo sapiens, UniProt P35916); assay: Inhibition of FLT4 by ELISA
[24] = Clearance in male rat at 25 mg/kg, po and 2 mg/kg, iv; type: ADME, organism-based; conditions: in vivo
[25] = Lipophilicity, log D at pH 7.4; type: physicochemical; conditions: buffer
[26] = Percent of unbound ligand in rat plasma; type: ADME, organism-based
[27] = target: Tyrosine-protein kinase CSK (Homo sapiens, UniProt P41240); assay: Inhibition of recombinant CSK by ELISA
Aurora kinase B = Aurora kinase B (Homo sapiens, UniProt Q96GD4); assay: Inhibition of recombinant Aurora B by ELISA
[28] = Terminal half life in po dosed human; type: ADME, organism-based; conditions: in vivo, read-out: beta t1/2 (converted)
[29] = target: 3-phosphoinositide-dependent protein kinase 1 (Homo sapiens, UniProt O15530); assay: Inhibition of PDK
[30] = Inhibition of PI3K; design: species or system Homo sapiens
A549 [31] = assay: Inhibition of A549 cell migration by microdroplet migration assay; type: functional, cell-based; conditions: Homo sapiens
[32] = Percent of unbound ligand in human plasma; type: ADME, organism-based
[33] = target: cAMP-dependent protein kinase (PKA) (Homo sapiens, UniProt P22694+P17612+P22612); assay: Inhibition of PKA; type: protein assay
[34] = Dissociation constant, pKa of the basic side chain of compound; type: physicochemical
A549 [35] = assay: Inhibition of paxillin phosphorylation in A549 cells by Western blotting at 1 uM; type: functional; conditions: Homo sapiens
[36] = target: Platelet-derived growth factor receptor alpha (Homo sapiens, UniProt P16234); assay: Inhibition of recombinant PDGFRalpha by ELISA
[37] = Clearance in male dog; type: ADME, organism-based, Canis lupus familiaris; conditions: in vivo
[38] = Percent of unbound ligand in dog plasma; type: ADME, organism-based, Canis lupus familiaris
[39] = target: Fibroblast growth factor receptor 1 (Homo sapiens, UniProt P11362); assay: Inhibition of recombinant FGFR1 by ELISA
Calu-6 [40] = assay: Inhibition of FAK phosphorylation in Calu-6 xenograft tumor model at 20 mg/kg/day, po; type: functional; conditions: Homo sapiens
[41] = target: Vascular endothelial growth factor receptor 2 (Homo sapiens, UniProt P35968); assay: Inhibition of KDR
Sequence of Vascular endothelial growth factor receptor 2 (P35968 whole entry): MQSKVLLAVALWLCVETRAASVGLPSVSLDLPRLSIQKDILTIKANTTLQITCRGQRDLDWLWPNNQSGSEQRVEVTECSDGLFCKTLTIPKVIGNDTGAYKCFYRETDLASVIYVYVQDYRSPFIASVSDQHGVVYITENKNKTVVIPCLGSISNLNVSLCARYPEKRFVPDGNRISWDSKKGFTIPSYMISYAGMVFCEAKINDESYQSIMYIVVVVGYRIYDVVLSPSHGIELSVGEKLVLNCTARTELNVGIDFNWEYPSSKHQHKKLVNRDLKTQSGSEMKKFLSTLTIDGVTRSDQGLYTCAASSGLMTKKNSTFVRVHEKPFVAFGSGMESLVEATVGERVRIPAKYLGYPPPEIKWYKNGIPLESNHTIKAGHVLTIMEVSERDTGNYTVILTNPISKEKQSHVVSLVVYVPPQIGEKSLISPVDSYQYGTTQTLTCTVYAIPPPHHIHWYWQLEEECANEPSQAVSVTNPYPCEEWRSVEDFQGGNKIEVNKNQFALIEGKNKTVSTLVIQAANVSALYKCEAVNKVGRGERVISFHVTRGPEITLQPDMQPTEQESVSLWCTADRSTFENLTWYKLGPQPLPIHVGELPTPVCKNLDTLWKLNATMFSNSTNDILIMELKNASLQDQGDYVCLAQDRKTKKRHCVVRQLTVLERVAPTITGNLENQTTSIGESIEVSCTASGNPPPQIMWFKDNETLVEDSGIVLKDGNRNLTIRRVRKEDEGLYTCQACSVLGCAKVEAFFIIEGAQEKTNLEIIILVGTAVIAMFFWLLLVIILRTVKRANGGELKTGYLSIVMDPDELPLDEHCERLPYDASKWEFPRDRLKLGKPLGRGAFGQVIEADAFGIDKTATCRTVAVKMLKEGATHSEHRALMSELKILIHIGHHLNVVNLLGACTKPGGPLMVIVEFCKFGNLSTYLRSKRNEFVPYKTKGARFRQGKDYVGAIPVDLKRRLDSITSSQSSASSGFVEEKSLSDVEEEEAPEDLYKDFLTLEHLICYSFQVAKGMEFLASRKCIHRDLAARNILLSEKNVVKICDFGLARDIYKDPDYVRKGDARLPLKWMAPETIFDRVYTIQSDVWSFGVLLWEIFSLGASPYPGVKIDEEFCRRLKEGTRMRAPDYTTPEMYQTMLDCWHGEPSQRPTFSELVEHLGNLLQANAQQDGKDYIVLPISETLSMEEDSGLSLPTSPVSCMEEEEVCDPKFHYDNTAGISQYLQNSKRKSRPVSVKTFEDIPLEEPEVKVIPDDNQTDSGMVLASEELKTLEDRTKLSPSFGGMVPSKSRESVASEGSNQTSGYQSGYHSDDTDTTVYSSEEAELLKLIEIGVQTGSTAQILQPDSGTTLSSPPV

Sequence of Aurora kinase B (Q96GD4 whole entry): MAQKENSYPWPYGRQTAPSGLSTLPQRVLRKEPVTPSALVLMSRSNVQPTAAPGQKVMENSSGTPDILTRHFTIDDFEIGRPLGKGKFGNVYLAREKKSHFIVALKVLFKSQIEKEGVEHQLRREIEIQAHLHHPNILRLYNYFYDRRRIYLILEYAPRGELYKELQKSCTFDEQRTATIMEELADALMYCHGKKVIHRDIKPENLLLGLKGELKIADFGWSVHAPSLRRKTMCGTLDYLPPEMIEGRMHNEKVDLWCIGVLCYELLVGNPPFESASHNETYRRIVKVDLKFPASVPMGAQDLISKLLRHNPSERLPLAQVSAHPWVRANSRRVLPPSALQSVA
Sequence of Tyrosine-protein kinase CSK (P41240 whole entry): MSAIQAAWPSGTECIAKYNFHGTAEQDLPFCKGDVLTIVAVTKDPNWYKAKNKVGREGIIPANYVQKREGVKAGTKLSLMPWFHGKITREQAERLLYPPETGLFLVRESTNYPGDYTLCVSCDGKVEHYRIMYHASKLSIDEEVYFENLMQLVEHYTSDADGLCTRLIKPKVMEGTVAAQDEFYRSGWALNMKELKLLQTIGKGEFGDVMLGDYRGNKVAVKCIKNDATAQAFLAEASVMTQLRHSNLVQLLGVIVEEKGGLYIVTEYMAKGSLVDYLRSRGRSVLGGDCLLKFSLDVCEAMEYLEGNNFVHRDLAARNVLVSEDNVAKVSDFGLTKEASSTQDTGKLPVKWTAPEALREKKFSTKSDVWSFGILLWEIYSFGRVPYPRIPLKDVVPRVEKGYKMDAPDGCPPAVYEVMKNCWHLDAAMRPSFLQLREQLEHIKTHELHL
Sequence of Vascular endothelial growth factor receptor 3 (P35916 whole entry): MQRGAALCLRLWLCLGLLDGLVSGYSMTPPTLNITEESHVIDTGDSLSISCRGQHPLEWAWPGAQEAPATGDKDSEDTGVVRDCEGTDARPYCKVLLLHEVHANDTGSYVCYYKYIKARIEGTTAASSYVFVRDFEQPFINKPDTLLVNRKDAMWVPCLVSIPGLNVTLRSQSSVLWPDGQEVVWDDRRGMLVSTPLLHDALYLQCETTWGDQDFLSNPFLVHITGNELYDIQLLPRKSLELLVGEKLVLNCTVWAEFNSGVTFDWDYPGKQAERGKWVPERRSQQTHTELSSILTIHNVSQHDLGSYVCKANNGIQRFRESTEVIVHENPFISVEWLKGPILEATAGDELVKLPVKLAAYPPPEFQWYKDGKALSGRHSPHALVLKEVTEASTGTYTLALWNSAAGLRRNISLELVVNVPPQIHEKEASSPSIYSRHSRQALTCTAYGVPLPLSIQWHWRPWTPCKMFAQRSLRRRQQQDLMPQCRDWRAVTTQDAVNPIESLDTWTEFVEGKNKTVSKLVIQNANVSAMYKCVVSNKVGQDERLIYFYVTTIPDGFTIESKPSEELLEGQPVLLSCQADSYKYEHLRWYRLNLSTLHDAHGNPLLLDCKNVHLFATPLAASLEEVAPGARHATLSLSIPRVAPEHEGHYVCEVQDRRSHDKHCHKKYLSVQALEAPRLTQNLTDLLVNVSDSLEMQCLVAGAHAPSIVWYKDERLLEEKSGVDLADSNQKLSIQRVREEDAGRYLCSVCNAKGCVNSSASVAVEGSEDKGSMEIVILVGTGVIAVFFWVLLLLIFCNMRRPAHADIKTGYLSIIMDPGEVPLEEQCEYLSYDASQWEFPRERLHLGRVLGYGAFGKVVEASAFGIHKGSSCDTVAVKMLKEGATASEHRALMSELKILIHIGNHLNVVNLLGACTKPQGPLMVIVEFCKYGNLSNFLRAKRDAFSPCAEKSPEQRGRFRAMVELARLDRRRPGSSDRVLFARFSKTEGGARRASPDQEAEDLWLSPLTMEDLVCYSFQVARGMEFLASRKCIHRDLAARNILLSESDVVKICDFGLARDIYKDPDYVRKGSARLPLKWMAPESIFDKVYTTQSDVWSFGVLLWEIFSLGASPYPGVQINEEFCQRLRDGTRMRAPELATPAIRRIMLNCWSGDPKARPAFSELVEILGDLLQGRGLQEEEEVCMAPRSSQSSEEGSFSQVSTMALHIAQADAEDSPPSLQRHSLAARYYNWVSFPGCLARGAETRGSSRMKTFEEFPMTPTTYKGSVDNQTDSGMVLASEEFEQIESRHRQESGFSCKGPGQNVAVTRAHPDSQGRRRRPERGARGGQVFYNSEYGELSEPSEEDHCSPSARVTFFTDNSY
Sequence of Vascular endothelial growth factor receptor 1 (P17948 whole entry): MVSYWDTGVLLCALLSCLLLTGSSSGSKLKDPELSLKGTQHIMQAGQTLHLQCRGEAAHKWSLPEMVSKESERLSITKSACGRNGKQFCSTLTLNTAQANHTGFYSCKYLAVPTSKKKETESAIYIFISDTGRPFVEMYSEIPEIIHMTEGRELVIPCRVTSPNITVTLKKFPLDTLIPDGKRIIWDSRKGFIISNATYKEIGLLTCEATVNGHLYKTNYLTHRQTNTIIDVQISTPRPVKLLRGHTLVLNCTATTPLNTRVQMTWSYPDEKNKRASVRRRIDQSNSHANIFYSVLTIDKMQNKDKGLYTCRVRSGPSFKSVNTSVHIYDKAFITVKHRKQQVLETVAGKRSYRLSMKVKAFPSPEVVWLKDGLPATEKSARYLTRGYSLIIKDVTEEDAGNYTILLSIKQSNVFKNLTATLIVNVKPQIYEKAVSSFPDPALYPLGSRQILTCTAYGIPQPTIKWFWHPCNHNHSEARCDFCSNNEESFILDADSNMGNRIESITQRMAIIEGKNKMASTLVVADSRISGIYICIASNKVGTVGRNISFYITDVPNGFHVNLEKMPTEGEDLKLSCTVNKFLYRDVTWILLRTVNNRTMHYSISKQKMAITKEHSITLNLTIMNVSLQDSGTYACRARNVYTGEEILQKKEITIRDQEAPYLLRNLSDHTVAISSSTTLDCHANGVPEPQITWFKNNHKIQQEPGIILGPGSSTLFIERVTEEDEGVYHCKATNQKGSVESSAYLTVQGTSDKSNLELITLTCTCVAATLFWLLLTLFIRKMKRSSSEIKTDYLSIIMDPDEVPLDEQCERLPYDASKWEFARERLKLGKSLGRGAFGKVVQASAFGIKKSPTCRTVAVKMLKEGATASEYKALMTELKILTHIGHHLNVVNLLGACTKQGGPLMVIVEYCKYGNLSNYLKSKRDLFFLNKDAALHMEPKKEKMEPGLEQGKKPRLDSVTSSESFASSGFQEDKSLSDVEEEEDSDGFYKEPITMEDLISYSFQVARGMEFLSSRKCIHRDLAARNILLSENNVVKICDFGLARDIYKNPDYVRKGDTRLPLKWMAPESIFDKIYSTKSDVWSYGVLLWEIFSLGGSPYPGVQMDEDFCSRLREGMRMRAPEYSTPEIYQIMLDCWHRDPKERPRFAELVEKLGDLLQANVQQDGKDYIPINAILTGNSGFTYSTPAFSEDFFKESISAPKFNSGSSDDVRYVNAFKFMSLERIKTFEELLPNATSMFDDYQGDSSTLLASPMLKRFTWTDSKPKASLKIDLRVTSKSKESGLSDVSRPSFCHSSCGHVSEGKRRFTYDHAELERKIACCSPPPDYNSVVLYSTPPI

Q: For CN1CCN(CCOc2cc(OC3CCOCC3)c3c(Nc4c(Cl)ccc5c4OCO5)ncnc3c2)CC1 [SARACATINIB], which inhibition in vivo at 20 mg/kg/day (Calu-6 [1]) is on record?
A: The inhibition in vivo at 20 mg/kg/day was greater than 80%.

Q: What about the Papp A→B [2] of the same compound?
A: Its Papp A→B is greater than 30 ×10⁻⁶ cm/s.

Q: What about the IC50 [3] of the same compound?
A: The IC50 was greater than 10 µM.

Q: And the IC50 [4]?
A: The IC50 was greater than 100 µM.

Q: And the IC50 (K562)?
A: Its IC50 is 0.22 µM.

Q: And the IC50 (HUVEC [5])?
A: Its IC50 is greater than 5 µM.

Q: And the IC50 [6]?
A: Its IC50 is 10 µM.

Q: What about the half-life [7] of the same compound?
A: Its half-life is 5 h.

Q: And the IC50 [8]?
A: The IC50 was greater than 10 µM.

Q: What about the solubility [9] of the same compound?
A: Its solubility is 240 µM (≈ 130 µg/mL).

Q: And the half-life [10]?
A: Its half-life is 5 h.

Q: What about the Vd [11] of the same compound?
A: The Vd was 11.6 L/kg.

Q: And the Vd [12]?
A: The Vd was 10 L/kg.

Q: And the IC50 (HUVEC [13])?
A: Its IC50 is greater than 5 µM.

Q: What about the bioavailability [14] of the same compound?
A: Its bioavailability is greater than 50%.

Q: What about the half-life [15] of the same compound?
A: The half-life was 7 h.

Q: What about the AUC(0-t) at 24 h [16] of the same compound?
A: The AUC(0-t) at 24 h was 12000 ng·h/mL.

Q: And the clearance [17]?
A: The clearance was 16.7 mL/min/kg.

Q: What about the IC50 [18] of the same compound?
A: The IC50 was 14 µM.

Q: What about the bioavailability [19] of the same compound?
A: Its bioavailability is 92%.

Q: And the bioavailability [20]?
A: The bioavailability was 79%.

Q: And the IC50 [21]?
A: The IC50 was greater than 10 µM.

Q: And the Vd [22]?
A: Its Vd is 10 L/kg.

Q: And the inhibition in vivo at 6 mg/kg/day (NIH3T3)?
A: Its inhibition in vivo at 6 mg/kg/day is greater than 95%.

Q: What about the IC50 [23] of the same compound?
A: Its IC50 is greater than 10 µM.

Q: What about the clearance [24] of the same compound?
A: The clearance was 20 mL/min/kg.

Q: What about the logD [25] of the same compound?
A: Its logD is 2.9.

Q: And the fraction unbound [26]?
A: Its fraction unbound is 0.13.

Q: What about the IC50 [27] of the same compound?
A: The IC50 was 0.84 µM.

Q: And the IC50 (Aurora kinase B)?
A: Its IC50 is greater than 10 µM.

Q: And the half-life [28]?
A: The half-life was 40 h.

Q: What about the IC50 [29] of the same compound?
A: Its IC50 is greater than 10 µM.

Q: What about the IC50 [30] of the same compound?
A: Its IC50 is greater than 10 µM.

Q: What about the IC50 (A549 [31]) of the same compound?
A: Its IC50 is 0.14 µM.

Q: What about the fraction unbound [32] of the same compound?
A: The fraction unbound was 0.09.

Q: What about the IC50 [33] of the same compound?
A: Its IC50 is greater than 10 µM.

Q: What about the pKa [34] of the same compound?
A: The pKa was 7.98.

Q: What about the inhibition at 1 µM (A549 [35]) of the same compound?
A: Its inhibition at 1 µM is 70%.

Q: And the IC50 [36]?
A: Its IC50 is 10 µM.

Q: And the clearance [37]?
A: Its clearance is 11.7 mL/min/kg.

Q: What about the fraction unbound [38] of the same compound?
A: Its fraction unbound is 0.14.

Q: What about the IC50 [39] of the same compound?
A: Its IC50 is greater than 10 µM.

Q: And the inhibition in vivo at 20 mg/kg/day (Calu-6 [40])?
A: The inhibition in vivo at 20 mg/kg/day was greater than 80%.

Q: What about the IC50 [41] of the same compound?
A: Its IC50 is 20.9 µM.
